According to PMC9822155, “Synthesis and Antiproliferative Activity against Cancer Cells of Indole-Aryl-Amide Derivatives” (Molecules, 2022):

Legend:
[1] = test system: I407 (human embryonic intestinal) cells; assay: MTT viability assay, I407; type: cell-based; conditions: 24 h, normal cells
Source text: (§1) To investigate whether the compounds have an antitumor activity, we performed in vitro viability assays against a panel of cancer cell lines: HT29 (human colorectal adenocarcinoma), HeLa (human cervical carcinoma), IGROV-1 (human ovarian carcinoma), MCF7 (human breast cancer), PC-3 (human prostate adenocarcinoma), and Jurkat J6 (human […]). The I407 (human embryonic intestinal) and 3T3 (mouse embryonic fibroblast) cells were used as controls. The growth inhibitory concentration was determined by incubating the cells with increasing concentrations (0.01–500 μM) of the compounds for 24 h. Data obtained from cell growth assays were elaborated to assess the concentration of cell viability (IC50) and selectivity indices (SI), and the results are shown in Table 2 and Table 3, respectively.
(§2) HT29 human colorectal adenocarcinoma cells, HeLa human cervix adenocarcinoma cells, MCF7 human breast adenocarcinoma cells, PC-3 human prostate adenocarcinoma cells, J6 Jurkat Clone E6-1 acute T cell leukemia, the healthy I407 human intestine cells, and mouse embryonic fibroblast 3T3 fibroblasts as controls cell lines were purchased from American Type Culture Collection (ATCC, Manassas, VA). The human ovarian cancer cell line IGROV1 has been kindly provided by Prof. Colnaghi (Istituto Nazionale Tumori (IRCCS) (Milano, Italy). Cells were cultured in RPMI 1640 medium (Labtek Eurobio, Milan, Italy), supplemented with 10% FCS (Euroclone, Milano, Italy) and 2 mM L-glutamine (Sigma-Aldrich, Milano, Italy), at 37 °C, and a 5% CO2 atmosphere. The compounds were dissolved in DMSO in a 30–40 mM stock solution. In cell treatments, the final DMSO concentration never exceeded 0.1%.
(§3) Cells were seeded at 1.5 × 10^4 cells/well in a 96-well culture plastic plate (Sarsted, Milan, Italy), and after 24 h of growth were exposed to increasing concentrations of each distinct compound (from 0.010 μM to 500 μM) solubilized in RPMI 1640 medium. MTT assay was performed according to the literature. In brief, after 24 h of treatment, the culture medium was replaced with 0.1 mL of 3-(4,5-dimethylthiazolyl-2)-2,5-diphenyltetrazolium bromide (MTT, Sigma-Aldrich, Milano, Italy) dissolved in PBS at the concentration of 0.2 mg/mL, and samples were incubated for 2 h at 37 °C. The absorbance at 570 nm was measured using a multiwell plate reader (Tecan, Männemorf, Switzerland), and data were analyzed by Prism GraphPad software, and expressed as IC50 μM.

[2] = test system: HT29 (human colorectal adenocarcinoma) cells; assay: MTT viability assay, HT29; type: cell-based
Source text: as §1, §2, §3

[3] = test system: CDKN1B, CDKN1A and Bax transcription in HT29 cells; assay: Quantitative real-time PCR of CDKN1B, CDKN1A, Bax; type: cell-based, human; conditions: HT29, 5 μM, 6 h, normalized to G3PDH, vs. control
Protocol: To verify whether the epigenetic modifications were related to changes in gene expression, we proceeded with the qtRT-PCR analysis and western blot of related protein products. Transcription levels of CDKN1B, CDKN1A, and Bax were analysed by RT-PCR performed on cDNA of HT29 control and treated with 5 μM of 5 for 6 h.
24 h after seeding, HT29 cells have been treated with 5 µM 5 for 6 h. Total RNA has been isolated by RNeasy Mini kit (Qiagen, Hilden, Germany) according to the manufacturer’s protocol. 1 μg of RNA has been reverse-transcribed with RevertAid First Strand cDNA Synthesis Kit (Fermentas, Ontario, Canada) by using oligo(dT) primers. The cDNA has been analyzed by quantitative Real-Time PCR (qRT-PCR), by employing the LightCycler FastStart DNA Master SYBR Green I Kit and the LightCycler 2.0 instrument (Roche Diagnostics, Manheim, Germany). Gene expression has been quantified by ΔΔCT method, by using G3PDH as the housekeeping gene. The following primers were used: 5′-[…]-3′ (forward) and 5′-[…]-3′ (reverse) for G3PDH detection, 5′-[…]-3′ (forward) and 5′-[…]-3′ (reverse) for p27 detection 5′-[…]-3′(forward) and 5′-[…]-3′ (reverse) for p21 WAF1 detection, 5′-GATGCGTCCACCAAGAAGC-3′ (forward) and 5′-CCGCCACAAAGATGGTCAC -3′ (reverse) for Bax detection.

[4] = test system: HeLa (human cervical carcinoma) cells; assay: MTT viability assay, HeLa; type: cell-based; conditions: Homo sapiens; MTT, 24 h
Source text: as §1, §2, §3

[5] = test system: MCF7 (human breast cancer) cells; assay: MTT viability assay, MCF7; type: cell-based; conditions: Homo sapiens, MCF7; MTT, 24 h
Source text: as §1, §2, §3

[6] = test system: p27, p21 and Bax proteins in HT29 cells; assay: Western blot of p27, p21, Bax proteins; type: cell-based, human; conditions: HT29, 5 μM, 24 h
Protocol: P27, p21, and Bax proteins expressions were analysed by western blot in control HT29 and treated with 5 μM of 5 for 24 h.
HT29 cells were seeded in 25 cm^2 flasks at a density of 2 × 10^4 cells/cm^2, and after 24 h, they were treated with 5 μM of compound 5. After 24 h, both treated and control cells were washed twice with PBS and lysed in RIPA buffer [50 mMTris/HCl, 150 mMNaCl, SDS (1% v/v), Triton X-100 (1% v/v), 1 mM EDTA, pH 7.6]. Cell lysates were centrifuged at 12,000× g for 20 min, and the protein concentration was determined by using the Bio-Rad protein assay method (Bio-Rad, Hercules, CA, USA). The proteins were detected resolving samples on a 12% gel in Tris-Glycine buffer at 200 V for 50 min. Western Blot was performed in transfer buffer at 100 V for 1 h. The nitrocellulose membrane was incubated with primary antibodies for rabbit anti-p21 (Millipore, Billerica, MA, USA) or rabbit anti-p27 (Millipore, Billerica, MA) or mouse anti-Bax (Millipore, Billerica, MA, USA) or mouse anti-α tubulin (Invitrogen, Walthman, MA, USA) for 1 h. Detection of immunoreactive bands was performed by using a rabbit or mouse HRP-conjugated secondary antibody (GE Healthcare, Milan, Italy), followed by Amersham ECL Plus Western Blotting Detection System (GE Healthcare, Milan, Italy). Densitometry analysis of immunoreactive bands was done by Fluor-S Max MultiImager (Bio-Rad, Hercules, CA, USA). Relative quantification of bands was performed by using an α-tubulin signal as control.

[7] = test system: PC-3 (human prostate adenocarcinoma) cells; assay: MTT viability assay, PC3; type: cell-based
Source text: as §1, §2, §3

## Nc1ccc(CN(Cc2ccc(O)cc2)C(=O)Cc2c[nH]c3ccccc23)cc1 [Compound 5]
[1]
  IC50 [µM] I407: no activity
[1]; Homo sapiens
  IC50: > 500 µM
[2]; 3T3 normal cells as reference
  Selectivity Index IC503T3/ IC50HT29: 12.26
[2]; Homo sapiens, HT-29, MTT, 24 h
  IC50: 2.61 ± 0.05 µM
[3]
  Bax gene expression (fold change): 2.58 ± 0.11
  CDKN1A gene expression (fold change): 4.16 ± 0.53
  CDKN1B gene expression: did not modify the gene expression
[4]
  IC50: > 500 µM
[5]
  IC50: > 500 µM
[6]
  Bax protein expression: increase
  p21 protein expression: increase
  p27 protein expression: did not modify the expression
[7]; 3T3 normal cells as reference
  Selectivity Index IC503T3/ IC50PC3: 82.051
[7]; Homo sapiens, MTT, 24 h
  IC50: 0.39 ± 0.07 µM
